Columns and labels:
Format in all cases: cell-based, Human
HA-tagged ubiquitin = assay: Immunoprecipitation of HA-tagged ubiquitinated sensor; details: MDA-MB 231 cells transfected with pcDNA3-Ub-HA; 5 h with sensor; anti-HA immunoprecipitation; IVIS fluorescence
Protocol: MDA-MB 231 cells were seeded at a density of 2·10^5 cells per well in 6-multiwell plates twenty-four hours prior transfection. Each well was transfected with 2 μg of either pcDNA3-Ub-HA or empty vector pcDNA3 (Invitrogen) using Superfect (Qiagen) as transfection reagent. Twenty-four hours upon transfection culture medium was removed, cells were washed carefully with phosphate buffered saline (PBS; Sigma-Aldrich) and fresh culture medium containing the peptidic sensor 1 was added onto the cells. PBS was used as mock treatment. Five hours upon treatment with the sensor, cells were lysed in native immunoprecipitation buffer, 20 mM Tris·HCl pH 8, 137 mM NaCl,10% glycerol,1% Nonidet P-40 (NP-40), 2 mM EDTA, containing the protease inhibitors sodium orthovanadate (1 mM), PMSF (2 mM) and aprotinin (1 μg/mL) (Sigma-Aldrich). Each immunoprecipitation contained 600 μg of whole protein extract and were incubated overnight with 5 μg of anti-hemagglutinin HA.11 (Clone 16B12) antibody (Abcam) at 4 °C. Equal amounts of rabbit immunoglobulins (Sigma-Aldrich) were used as control. HA-tagged ubiquitins were immunoprecipitated using Protein G-coupled agarose (Santa Cruz), subsequently washed with immunoprecipitation buffer and eluted under native conditions. Fluorescence images were taken using an IVIS Spectrum system (Perkin-Elmer).

proteasome = assay: Sensor degradation under proteasome inhibitor MG-132; details: MDA-MB 231 cells; MG-132 20 μM or 40 μM, 6 h, after pre-treatment with probe
Protocol: (§1) Human breast cancer cells MDA-MB 231 were maintained at 37 °C and 5% CO2 in RPMI-1640 (Sigma–Aldrich), supplemented with 10% fetal bovine serum (Fisher Scientific). Cells were seeded at a density of 2·10^5 cells per well in 6-multiwell plates 24 h prior treatment. For hypoxia induction, they were treated with either CoCl2 (Sigma–Aldrich) at a final concentration of 500 μM, or L-Mimosine (Sigma–Aldrich) at a final concentration of 800 μM. Treatment with each peptidic sensor (500 ng/mL) was carried out in the presence of the aforementioned inhibitors. After three hours of incubation, supernatants containing the probes and either CoCl2 or L-Mimosine were aspirated, cells were washed once with PBS 1X and fresh medium, containing again either CoCl2 or L-Mimosine, was added to the cells for an extended incubation of three hours. Treatment with proteasome inhibitor MG-132 (Sigma-Aldrich) was carried out for 6 hours at final concentrations of either 20 μM or 40 μM, upon pre-treatment of the cells with the probes, as described previously. Fluorescent probes internalization was quantified using ImageJ (NIH). Quantified fluorescence was expressed as values of corrected total cell fluorescence (CTCF), which was calculated using the formula CTCF = integrated density – (area of selected cell × mean fluorescence of background readings)[44].

MDA-MB 231 cells = assay: Sensor stabilization by hypoxia-mimetic agents, fluorescence microscopy; details: sensor 500 ng/mL, CoCl2 500 μM or L-Mimosine 800 μM vs vehicle, 3 h incubation, wash, further 3 h
Protocol: as §1

Sequence: LDLEMLAPYIPMDDDFQL [compound 1, 5(6)-ROX-labelled HIF-1α ODD domain peptide (Leu557-Leu574) linked to octa-arginine by O2Oc PEG linkers]
- ubiquitination of sensor (enrichment by HA immunoprecipitation) (HA-tagged ubiquitin): degradation of the sensor is ubiquitin proteasome-regulated
- effect of proteasome inhibitor MG-132 on degradation of sensor fluorescent signal (proteasome): dose-dependent effect on proteasome degradation of fluorescent signal
- stabilization of sensor fluorescence (inhibition of sensor degradation) by hypoxia mimetics (MDA-MB 231 cells): stabilized in the presence of both molecules that mimic hypoxia

Source: paper PMC6506541, “A Bio-inspired Hypoxia Sensor using HIF1a-Oxygen-Dependent Degradation Domain” (Scientific Reports, 2019)
